# Columns and labels:
# [1] = test system: Puccinia graminis var. tritici; format: in vivo; conditions: 20 ppm, wheat seedlings, 24 hours humidity chamber at 20° C. then 7 days
# [2] = test system: Helminthosporium oryzae; assay: Control of rice Helminthosporium in a seed treatment test (Example 11); conditions: 1.3 g per kilogram of seed, 18 days, rating based on percent germination
# Method: Rice seed infected with Helminthosporium oryzae are treated with compounds of this invention at a rate of 1.3 g per kilogram of seed. This is accomplished by soaking infected seed for 1 minute in a suspension of the indicated compound dissolved in a solution containing 4% glycerine, 4% water, 0.02% Tween®20*, and 92% acetone. Treated seeds are placed on moist blotters and enclosed in plastic bags for 18 days at which time disease ratings are made based on percent germination.
# *Tween®20 is a trademark of ICI Americas, Inc. and consists of polyoxytheylene (20) sorbitan monolaurate.
# [3] = test system: Venturia inaequalis; assay: Control of apple scab in a residual wash-off test (Example 14); format: in vivo; conditions: 20 ppm, apple seedlings, 1/2 inch simulated rainfall, incubated 10-12 days
# Method: (§1) Compounds of this invention are dissolved in acetone in an amount equal to 6% of the final volume and then suspended at a concentration of 20 ppm in purified water containing 25 ppm of the surfactant Alkanol® XC (sodium alkyl naphthalene sulfonate). This suspension is sprayed to the point of run-off on apple seedlings. The following day, 1/2 inch of simulated rainfall is applied to the foliage of the plants. When the foliage is dry, the plants are inoculated with a spore suspension of the fungus Venturia inaequalis and incubated in a growth room for 10-12 days. Disease ratings are then made. […] Phytotoxicity in the form of foliar burn was observed on some of the plants in association with disease control.
# [4] = test system: Puccinia graminis var. tritici; format: in vivo; conditions: 20 ppm, wheat seedlings, 1/2 inch simulated rainfall, 24 hours humidity chamber then 7 days
# [5] = test system: Puccinia graminis var. tritici; format: in vivo; conditions: 20 ppm, wheat seedlings, 3500 foot candles xenon arc 16 hours, 24 hours humidity chamber then 7 days
# [6] = test system: Venturia inaequalis; assay: Control of apple scab in a photostability test (Example 15); format: in vivo; conditions: 20 ppm, apple seedlings, 3500 foot candles xenon arc 16 hours, incubated 10-12 days
# Method: Compounds of this invention are dissolved in acetone in an amount equal to 6% of the final volume and then suspended at a concentration of 20 ppm in purified water containing 25 ppm of the surfactant Alkanol® XC (sodium alkyl naphthalene sulfonate). This suspension is sprayed to the point of run-off on apple seedlings. When the foliage is dry, the plants are exposed to 3500 foot candles of light from a xenon arc source for a period of 16 hours. This light source approximates the spectrum of natural sunlight, and is used to assess photostability of the compounds of this invention on plant foliage. The following day, the plants are inoculated with a spore suspension of the fungus Venturia inaequalis and incubated in a growth room for 10-12 days. Disease ratings are then made. As shown in the following table, most of the compounds of this invention provided good disease control as the treated plants had fewer apple scab lesions in contrast to untreated plants which were covered with scab lesions. Phytotoxicity in the form of foliar burn was observed on some of the plants in association with disease control.
# [7] = test system: Erysiphe cichoracearum; assay: Control of cucumber powdery mildew in a photostability test (Example 18); format: in vivo; conditions: 20 ppm, cucumber seedlings, 3500 foot candles xenon arc 16 hours, incubated 7 days
# Method: Compounds of this invention are dissolved in acetone in an amount equal to 6% of the final volume and then suspended at a concentration of 20 ppm in purified water containing 25 ppm of the surfactant Alkanol® XC (sodium alkyl naphthalene sulfonate). This suspension is sprayed to the point of run-off in cucumber seedlings. When the foliage is dry, the plants are exposed to 3500 foot candles of light from a xenon arc source for a period of 16 hours. This light source approximates the spectrum of natural sunlight, and is used to assess photostability of the compounds of this invention on plant foliage. The following day, the plants are inoculated with a spore suspension of the fungus Erysiphe cichoracearum and incubated in a growth room for 7 days. Disease ratings are then made.
# [8] = test system: Erysiphe cichoracearum; assay: Control of cucumber powdery mildew in a preventive test (Example 16); format: in vivo; conditions: 20 ppm, cucumber seedlings, incubated 7 days
# Method: Compounds of this invention are dissolved in acetone in an amount equal to 6% of the final volume and then suspended at a concentration of 20 ppm in purified water containing 25 ppm of the surfactant Alkanol® XC (sodium alkyl naphthalane sulfonate). This suspension is sprayed to the point of run-off on cucumber seedlings. The following day, the plants are inoculated with a spore suspension of the fungus Erysiphe cichoracearum and incubated in a growth room for 7 days. Disease ratings are then made.
# [9] = test system: Phytophthora infestans; conditions: 5 ppm, tomato seedlings, incubated 4 days
# [10] = test system: Erysiphe cichoracearum; assay: Control of cucumber powdery mildew in a residual wash-off test (Example 17); format: in vivo; conditions: 20 ppm, cucumber seedlings, 1/2 inch simulated rainfall, incubated 7 days
# Method: Compounds of this invention are dissolved in acetone in an amount equal to 6% of the final volume and then suspended at a concentration of 20 ppm in purified water containing 25 ppm of the surfactant Alkanol® XC (sodium alkyl naphthalene sulfonate). This suspension is sprayed to the point of run-off on cucumber seedlings. The following day, 1/2 inch of simulated rainfall is applied to the foliage of the plants. When the foliage is dry, the plants are inoculated with a spore suspension of the fungus Erysiphe cichoracearum and incubated in a growth room for 7 days. Disease ratings are then made.
# [11] = test system: Venturia inaequalis; assay: Control of apple scab in a preventive test (Example 13); format: in vivo; conditions: 20 ppm, apple seedlings, incubated 10-12 days
# Method: as §1, with “day,” for “day, 1/2 inch of simulated rainfall is applied to the foliage of the plants. When the foliage is dry,”
# [12] = test system: Rhizoctonia solani; assay: Rhizoctonia solani control on cotton, simulated in-the-row soil application (Example 12); format: in vivo; conditions: 15 kg/ha, 8 days
# Source text: Rhizoctonia solani-infested soil was placed in a 900 cc cup. Compounds of this invention were mixed at a rate of 15 kg/ha in a section 2" wide×2" deep×4" long to simulate an in-the-row application. Five cotton seeds were planted in the treated soil. After 8 days, the cotton plants were removed and rated for disease control.
# [13] = test system: house fly adults; assay: House fly adult mortality (Example 10); format: in vivo, Musca domestica (house fly); conditions: concentration .01 (unit not given), acetone dispersion, 1 day, 25°±2° C., 50% RH
# Method: Twenty-five house fly adults are secured in screened stainless steel ring cages and treated with acetone dispersions of N-[2-chloro-5-(trifluoromethyl)-phenyl]-N-[2,4-dinitro-6-(trifluoromethyl)phenyl]-3-nitro-2-pyridinesulfenamide at the indicated concentrations. The stock dispersion is prepared by dissolving appropriately weighed quantities of active ingredient in predetermined quantities of acetone. Further diluting with acetone yields the desired concentrations. After treating, the units are kept in a room maintained at 25°±2° C., 50% RH. Results are recorded at the end of 1 day.
# [14] = test system: two spotted mites; assay: Two-spotted mite mortality on red kidney bean plants (Example 9); format: in vivo; conditions: Tetranychus urticae, 48 h, read-out: % Mortality (2 days)
# Method: Test units consisted of plant pots containing two red kidney bean plants in the two-leaf stage per pot. The plants were infested with two spotted mites and sprayed to run-off with dispersions of N-[2-chloro-5-(trifluoromethyl)phenyl]-N-[2,4-dinitro-6-(trifluoromethyl)phenyl]-3-nitro-2-pyridinesulfenamide at the indicated concentrations. Dispersions were made by dissolving weighed quantities of the active ingredients in 10 ml of acetone and then diluting to volume with water containing 1:3000 of a surfactant, DuPonol® (a tradename of E. I. du Pont de Nemours & Co. for sodium alcohol sulfonate). Mortality was evaluated two days after spraying.
Structure (SMILES),% Control Wheat Rust in a Preventive Test [1],% Control of rice Helminthosporium in a seed treatment test [2],% Control of Apple Scab in a Residual Wash-Off Test [3],% Control Wheat Rust in a Residual Wash-off Test [4],% Control Wheat Rust in a Photostability Test [5],% Control Apple Scab in a Photo-stability test [6],% Control Cucumber Powdery Mildew in a Photostability Test [7],% Control Cucumber Powdery Mildew in a Preventive Test [8],% Control Tomato Late Blight in a Preventive Test [9],% Control Cucumber Powdery Mildew in a Residual Wash-Off Test [10],% Control Apple Scab in a Preventive Test [11],% Rhizoctonia solani control [12],% Mortality [13],mortality at 0.00025 % [14]
"O=[N+]([O-])c1cc([N+](=O)[O-])c(N(Sc2nc3ccccc3s2)c2cc(C(F)(F)F)ccc2Cl)c(C(F)(F)F)c1 [N-[2-chloro-5-(trifluoromethyl)phenyl]-N-[2,4-dinitro-6-(trifluoromethyl)phenyl]-2-benzothiazolesulfenamide]",97%,0%,43%,85%,83%,15%,15%,60%,0%,68%,43%,50%,,
"O=[N+]([O-])c1cc([N+](=O)[O-])c(N(Sc2ncccc2[N+](=O)[O-])c2cc(C(F)(F)F)ccc2Cl)c(C(F)(F)F)c1 [N-[2-chloro-5-(trifluoromethyl)phenyl]-N-[2,4-dinitro-6-(trifluoromethyl)phenyl]-3-nitro-2-pyridinesulfenamide]",80%,90%,100%,98%,95%,70%,94%,100%,70%,90%,100%,100%,90%,100%

# Reference: US4298613A, “Agricultural heterocyclic sulfenamides” (E. I. Du Pont de Nemours and Company, priority 1980, dated 1981)
